The source of these data is US20220177508A1, “C10-Cyclic Substituted 13-Membered Macrolides and Uses Thereof” (Zikani Therapeutics, Inc., priority 2018, published 2022).

Molecules are shown by their SMILES. Values after ≈ are worked out from the molar mass of the structure shown. Where only a bound is given, the exact number is not on record here.

Common to all, as to format: cell-based
One test concerns E. coli MP-4. Nature of the test: Broth dilution MIC determination (CLSI), E. coli MP-4. The settings on record: Escherichia coli, MP4; strain MP-4, broth dilution; read-out: MIC E. coli MP-4.
Another test relates to A. baumannii MP-15. Nature of the test: Broth dilution MIC determination (CLSI), A. baumannii MP-15. The settings on record: Acinetobacter baumannii, MP15; strain MP-15, broth dilution; read-out: MIC A. baumanii MP-15.
The test system of another test is K. pneumoniae MP-648. Put plainly: Broth dilution MIC determination (CLSI), K. pneumoniae MP-648. The following applies: Klebsiella pneumoniae, MP648; strain MP-648, broth dilution.
The subject of a further test is P. aeruginosa MP-3. Put plainly: Broth dilution MIC determination (CLSI), P. aeruginosa MP-3. The settings on record: Pseudomonas aeruginosa, MP3; strain MP-3, broth dilution. (In general: In broth dilution the organism is exposed to a series of concentrations in liquid medium.)
In another test the test system is K. pneumoniae MP-546. Put plainly: Broth dilution MIC determination (CLSI), K. pneumoniae MP-546. The settings on record: Klebsiella pneumoniae, MP546; strain MP-546, broth dilution.
The subject of a further test is S. aureus MP-12. Put plainly: Broth dilution MIC determination (CLSI), S. aureus MP-12. The following applies: Staphylococcus aureus, MP12; strain MP-12, broth dilution.

What is called MIC is the lowest concentration that inhibits growth of the organism. As for `CCCN1C[C@H](C)C[C@@](C)(OC)[C@H](O[C@@H]2O[C@H](C)C[C@H](N(C)C)[C@H]2O)[C@@H](C)C(=O)C(C)(C)C(=O)OC[C@H]1[C@H]1C[C@H](N(C)CC2CC2)C1` [Compound 95, (3R,6R,8R,9R,10R)-3-((1r,3R)-3-((cyclopropylmethyl)(methyl)amino)cyclobutyl)-9-(((2S,3R,4S,6R)-4-(dimethylamino)-3-hydroxy-6-methyltetrahydro-2H-pyran-2-yl)oxy)-8-methoxy-6,8,10,12,12-pentamethyl-4-propyl-1-oxa-4-azacyclotridecane-11,13-dione], the MIC in the test with E. coli MP-4 was < 4 µg/mL; in the test on A. baumannii MP-15 it was > 32 µg/mL; with K. pneumoniae MP-648, 4 to 32 µg/mL (≈ 6.01 to 48.1 µM); in the test with P. aeruginosa MP-3, > 32 µg/mL; in the test with K. pneumoniae MP-546 it was < 4 µg/mL; in the test on S. aureus MP-12 it was 4 to 32 µg/mL (≈ 6.01 to 48.1 µM).

As to `CO[C@]1(C)C[C@@H](C)CN(C)[C@H](C2CN(CC3CCCC3)C2)COC(=O)C(C)(C)C(=O)[C@H](C)[C@H]1O[C@@H]1O[C@H](C)C[C@H](N(C)C)[C@H]1O` [Compound 103, (3R,6R,8R,9R,10R)-3-(1-(cyclopentylmethyl)azetidin-3-yl)-9-(((2S,3R,4S,6R)-4-(dimethylamino)-3-hydroxy-6-methyltetrahydro-2H-pyran-2-yl)oxy)-8-methoxy-4,6,8,10,12,12-hexamethyl-1-oxa-4-azacyclotridecane-11,13-dione], the MIC in the test on E. coli MP-4 is < 4 µg/mL; in the test on A. baumannii MP-15, 4 to 32 µg/mL (≈ 6.27 to 50.2 µM); in the test with K. pneumoniae MP-648, 4 to 32 µg/mL (≈ 6.27 to 50.2 µM); with P. aeruginosa MP-3 it was > 32 µg/mL; with K. pneumoniae MP-546 it was < 4 µg/mL; against S. aureus MP-12, 4 to 32 µg/mL (≈ 6.27 to 50.2 µM).

As for `CO[C@]1(C)C[C@@H](C)CN(C)[C@@H](C2CCN(CC3CC3)CC2)COC(=O)C(C)(C)C(=O)[C@H](C)[C@H]1O[C@@H]1O[C@H](C)C[C@H](N(C)C)[C@H]1O` [Compound 108, (3S,6R,8R,9R,10R)-3-(1-(cyclopropylmethyl)piperidin-4-yl)-9-(((2S,3R,4S,6R)-4-(dimethylamino)-3-hydroxy-6-methyltetrahydro-2H-pyran-2-yl)oxy)-8-methoxy-4,6,8,10,12,12-hexamethyl-1-oxa-4-azacyclotridecane-11,13-dione], the MIC with E. coli MP-4 is < 4 µg/mL; with A. baumannii MP-15 it was > 32 µg/mL; in the test with K. pneumoniae MP-648, < 4 µg/mL; against P. aeruginosa MP-3, > 32 µg/mL; in the test with K. pneumoniae MP-546, < 4 µg/mL; with S. aureus MP-12 it was 4 to 32 µg/mL (≈ 6.27 to 50.2 µM).

With `CO[C@]1(C)C[C@@H](C)CN(C)[C@H](C2CN(C(=O)[C@@H]3CCN(C)C3)C2)COC(=O)C(C)(C)C(=O)[C@H](C)[C@H]1O[C@@H]1O[C@H](C)C[C@H](N(C)C)[C@H]1O` [Compound 111, (3R,6R,8R,9R,10R)-9-(((2S,3R,4S,6R)-4-(dimethylamino)-3-hydroxy-6-methyltetrahydro-2H-pyran-2-yl)oxy)-8-methoxy-4,6,8,10,12,12-hexamethyl-3-(1-((R)-1-methylpyrrolidine-3-carbonyl)azetidin-3-yl)-1-oxa-4-azacyclotridecane-11,13-dione], the MIC with E. coli MP-4 is 4 to 32 µg/mL (≈ 6 to 48 µM); in the test with A. baumannii MP-15, > 32 µg/mL; in the test on K. pneumoniae MP-648, 4 to 32 µg/mL (≈ 6 to 48 µM); with P. aeruginosa MP-3, > 32 µg/mL; in the test with K. pneumoniae MP-546 it was 4 to 32 µg/mL (≈ 6 to 48 µM); against S. aureus MP-12 it was 4 to 32 µg/mL (≈ 6 to 48 µM).

As for `CO[C@]1(C)C[C@@H](C)CN(C)[C@H](C2CN(CC(C)(C)C)C2)COC(=O)C(C)(C)C(=O)[C@H](C)[C@H]1O[C@@H]1O[C@H](C)C[C@H](N(C)C)[C@H]1O` [Compound 114, (3R,6R,8R,9R,10R)-9-(((2S,3R,4S,6R)-4-(dimethylamino)-3-hydroxy-6-methyltetrahydro-2H-pyran-2-yl)oxy)-8-methoxy-4,6,8,10,12,12-hexamethyl-3-(1-neopentylazetidin-3-yl)-1-oxa-4-azacyclotridecane-11,13-dione], the MIC in the test on E. coli MP-4 is < 4 µg/mL; with A. baumannii MP-15, > 32 µg/mL; in the test with K. pneumoniae MP-648 it was 4 to 32 µg/mL (≈ 6.39 to 51.1 µM); with P. aeruginosa MP-3 it was > 32 µg/mL; against K. pneumoniae MP-546 it was < 4 µg/mL; against S. aureus MP-12 it was 4 to 32 µg/mL (≈ 6.39 to 51.1 µM).

Take `CO[C@]1(C)C[C@@H](C)CN(C)[C@H](C2CN(Cc3ccccn3)C2)COC(=O)C(C)(C)C(=O)[C@H](C)[C@H]1O[C@@H]1O[C@H](C)C[C@H](N(C)C)[C@H]1O` [Compound 115, (3R,6R,8R,9R,10R)-9-(((2S,3R,4S,6R)-4-(dimethylamino)-3-hydroxy-6-methyltetrahydro-2H-pyran-2-yl)oxy)-8-methoxy-4,6,8,10,12,12-hexamethyl-3-(1-(pyridin-2-ylmethyl)azetidin-3-yl)-1-oxa-4-azacyclotridecane-11,13-dione]: the MIC in the test on E. coli MP-4 was < 4 µg/mL; in the test with A. baumannii MP-15 it was > 32 µg/mL; against K. pneumoniae MP-648, 4 to 32 µg/mL (≈ 6.18 to 49.5 µM); in the test on P. aeruginosa MP-3 it was > 32 µg/mL; in the test on K. pneumoniae MP-546 it was 4 to 32 µg/mL (≈ 6.18 to 49.5 µM); with S. aureus MP-12 it was 4 to 32 µg/mL (≈ 6.18 to 49.5 µM).

For `CO[C@]1(C)C[C@@H](C)CN(C)[C@H](C2CN(Cc3cccnc3)C2)COC(=O)C(C)(C)C(=O)[C@H](C)[C@H]1O[C@@H]1O[C@H](C)C[C@H](N(C)C)[C@H]1O` [Compound 119, (3R,6R,8R,9R,10R)-9-(((2S,3R,4S,6R)-4-(dimethylamino)-3-hydroxy-6-methyltetrahydro-2H-pyran-2-yl)oxy)-8-methoxy-4,6,8,10,12,12-hexamethyl-3-(1-(pyridin-3-ylmethyl)azetidin-3-yl)-1-oxa-4-azacyclotridecane-11,13-dione], the MIC with E. coli MP-4 was < 4 µg/mL; in the test with A. baumannii MP-15, > 32 µg/mL; in the test on K. pneumoniae MP-648 it was 4 to 32 µg/mL (≈ 6.18 to 49.5 µM); in the test with P. aeruginosa MP-3, > 32 µg/mL; with K. pneumoniae MP-546, 4 to 32 µg/mL (≈ 6.18 to 49.5 µM); against S. aureus MP-12, 4 to 32 µg/mL (≈ 6.18 to 49.5 µM).

Take `CO[C@]1(C)C[C@@H](C)CN(C)[C@H](C2CN(C(=O)CN(C)C)C2)[C@@H](C)OC(=O)C(C)(C)C(=O)[C@H](C)[C@H]1O[C@@H]1O[C@H](C)C[C@H](N(C)C)[C@H]1O` [Compound 120, (2R,3R,6R,8R,9R,10R)-9-(((2S,3R,4S,6R)-4-(dimethylamino)-3-hydroxy-6-methyltetrahydro-2H-pyran-2-yl)oxy)-3-(1-(dimethylglycyl)azetidin-3-yl)-8-methoxy-2,4,6,8,10,12,12-heptamethyl-1-oxa-4-azacyclotridecane-11,13-dione]: the MIC was 4 to 32 µg/mL (≈ 6.11 to 48.9 µM) in the test on E. coli MP-4; > 32 µg/mL with A. baumannii MP-15; > 32 µg/mL in the test with K. pneumoniae MP-648; > 32 µg/mL against P. aeruginosa MP-3; 4 to 32 µg/mL (≈ 6.11 to 48.9 µM) in the test with K. pneumoniae MP-546; > 32 µg/mL in the test with S. aureus MP-12.

Take `CCN(C)CC(C)(C)CC(=O)N1CC([C@@H]2COC(=O)C(C)(C)C(=O)[C@H](C)[C@@H](O[C@@H]3O[C@H](C)C[C@H](N(C)C)[C@H]3O)[C@](C)(OC)C[C@@H](C)CN2C)C1` [Compound 122, (3R,6R,8R,9R,10R)-9-(((2S,3R,4S,6R)-4-(dimethylamino)-3-hydroxy-6-methyltetrahydro-2H-pyran-2-yl)oxy)-3-(1-(4-(ethyl(methyl)amino)-3,3-dimethylbutanoyl)azetidin-3-yl)-8-methoxy-4,6,8,10,12,12-hexamethyl-1-oxa-4-azacyclotridecane-11,13-dione]: the minimum inhibitory concentration (MIC) is < 4 µg/mL with E. coli MP-4; > 32 µg/mL in the test on A. baumannii MP-15; 4 to 32 µg/mL (≈ 5.63 to 45 µM) against K. pneumoniae MP-648; > 32 µg/mL with P. aeruginosa MP-3; 4 to 32 µg/mL (≈ 5.63 to 45 µM) with K. pneumoniae MP-546; 4 to 32 µg/mL (≈ 5.63 to 45 µM) against S. aureus MP-12.

For `COCC(C)N1CCC([C@H]2COC(=O)C(C)(C)C(=O)[C@H](C)[C@@H](O[C@@H]3O[C@H](C)C[C@H](N(C)C)[C@H]3O)[C@](C)(OC)C[C@@H](C)CN2C)CC1` (stereo partly drawn) [Compound 124, (3S,6R,8R,9R,10R)-9-(((2S,3R,4S,6R)-4-(dimethylamino)-3-hydroxy-6-methyltetrahydro-2H-pyran-2-yl)oxy)-8-methoxy-3-(1-(1-methoxypropan-2-yl)piperidin-4-yl)-4,6,8,10,12,12-hexamethyl-1-oxa-4-azacyclotridecane-11,13-dione], the MIC is < 4 µg/mL in the test with E. coli MP-4; > 32 µg/mL in the test with A. baumannii MP-15; 4 to 32 µg/mL (≈ 6.1 to 48.8 µM) against K. pneumoniae MP-648; > 32 µg/mL with P. aeruginosa MP-3; < 4 µg/mL in the test on K. pneumoniae MP-546; 4 to 32 µg/mL (≈ 6.1 to 48.8 µM) against S. aureus MP-12.

`CO[C@]1(C)C[C@@H](C)CN(C)[C@H](C2CN(C(=O)CCN(C)CC(C)C)C2)COC(=O)C(C)(C)C(=O)[C@H](C)[C@H]1O[C@@H]1O[C@H](C)C[C@H](N(C)C)[C@H]1O` [Compound 125, (3R,6R,8R,9R,10R)-9-(((2S,3R,4S,6R)-4-(dimethylamino)-3-hydroxy-6-methyltetrahydro-2H-pyran-2-yl)oxy)-3-(1-(3-(isobutyl(methyl)amino)propanoyl)azetidin-3-yl)-8-methoxy-4,6,8,10,12,12-hexamethyl-1-oxa-4-azacyclotridecane-11,13-dione]: the MIC in the test with E. coli MP-4 is < 4 µg/mL; in the test on A. baumannii MP-15, > 32 µg/mL; with K. pneumoniae MP-648, 4 to 32 µg/mL (≈ 5.74 to 45.9 µM); with P. aeruginosa MP-3, > 32 µg/mL; with K. pneumoniae MP-546 it was 4 to 32 µg/mL (≈ 5.74 to 45.9 µM); in the test with S. aureus MP-12 it was > 32 µg/mL.

With `CO[C@]1(C)C[C@@H](C)CN(C)[C@H](C2CN(C(=O)[C@H]3CCN(CC4CC4)C3)C2)COC(=O)C(C)(C)C(=O)[C@H](C)[C@H]1O[C@@H]1O[C@H](C)C[C@H](N(C)C)[C@H]1O` [Compound 126, (3R,6R,8R,9R,10R)-3-(1-((S)-1-(cyclopropylmethyl)pyrrolidine-3-carbonyl)azetidin-3-yl)-9-(((2S,3R,4S,6R)-4-(dimethylamino)-3-hydroxy-6-methyltetrahydro-2H-pyran-2-yl)oxy)-8-methoxy-4,6,8,10,12,12-hexamethyl-1-oxa-4-azacyclotridecane-11,13-dione], the minimal inhibitory concentration (MIC) in the test with E. coli MP-4 was < 4 µg/mL; with A. baumannii MP-15, > 32 µg/mL; in the test with K. pneumoniae MP-648 it was 4 to 32 µg/mL (≈ 5.66 to 45.3 µM); in the test with P. aeruginosa MP-3 it was > 32 µg/mL; against K. pneumoniae MP-546, 4 to 32 µg/mL (≈ 5.66 to 45.3 µM); against S. aureus MP-12, 4 to 32 µg/mL (≈ 5.66 to 45.3 µM).
